Laboratory results from patent publication US5591773A, “Inhibition of cataract formation, diseases resulting from oxidative stress, and HIV replication by caffeic acid esters” (priority 1994, dated 1997).
Where “and” joins values, the source holds several entries; their conditions need not be identical. Equal entries are not always repeated. Entries after “also recorded” stand apart in the source; their conditions may differ.

What was measured:
[1] = system: untransformed rat 6 cells; conditions: cited from earlier work
[2] = system: NIH 10T1/2, Ltk^- and rat 6 cells transformed with T24 oncogene; conditions: cited from earlier work
[3] = system: ornithine decarboxylase (ODC); test: TPA-induced ornithine decarboxylase (ODC) in SENCAR mice; format: in vivo; conditions: CAPE 10 μmol, TPA 4 nmol
Experimental: (§1) A) Treatment of Animals and Assays. Female SENCAR (6-8 weeks old) and CD-1 mice (about 7 weeks old) were purchased from Biological Testing, National Cancer Institute (Frederick, Md.) and from Charles River Laboratory (Stone Ridge, N.Y.), respectively. The mice were acclimated for at least 1 week before use. They were subjected to a 12-h light/12-h dark cycle, housed at 20°±2° C. in a room with 10 cycles of air exchanges/h, given food and water ad libitum, and observed for any indication of ill health. Before topical application of any test agents, their backs were shaved and only those without hair growth after 48 h were used.

[4] = system: oxidative burst of human PMNs; test: H2O2 formation by TPA-stimulated human PMNs (phenol red/HRPO); format: cell-based
Experimental: FIG. 4. CAPE-mediated inhibition of H2 O2 formation by TPA-stimulated human PMNs. Cells were incubated with CAPE (0.05-5 nmol/ml) and TPA (25 pmol/2.5×10^5 PMNs/ml) at 37° C. for 30 min, and H2 O2 was determined by the phenol red/HRPO assay, as described in the "Experimental Details" Section, infra. Note the semilog scale. The results are presented as mean values ±SE.
A) Human PMNS Blood was obtained from healthy volunteers and collected into EDTA-containing tubes. Red cells were removed by dextran sedimentation and lysis with hypotonic ammonium chloride, as described previously (5). Cells were washed in glucose-containing basic salt solution (137 mM NaCl, 5 mM KCl, 8.5 mM Na2 HPO4 -NaH2 PO4, 0.8 mM MgSO4, 5 mM glucose, pH 7.4) and suspended at a ratio of 10 ml of the initial blood volume/ml basic salt solution. Whole WBC population was used as a source of PMNs, with PMN numbers used per assay being adjusted according to the results of Wright's staining of the peripheral blood.
PMNs (2.5×10^5 /ml) were incubated with CAPE (0.05-5.0 nmol/ml) and/or TPA (25 pmol/ml) at 37° C. for 30 min in the presence of phenol red (100 μg) and HRPO (50 μg) (54). After the reaction was stopped with catalase (50 μg/ml), the pH was adjusted to 12.5 with NaOH, the mixture was centrifuged, and the absorbance of the supernatant was determined at 598 nm. […]

normal tissue = conditions: cited from earlier work
HIV integrase = conditions: cited from earlier work
[5] = system: ornithine decarboxylase (ODC); test: TPA-induced ornithine decarboxylase (ODC) in CD-1 mice; format: in vivo; conditions: CAPE 1 μmol, TPA 5 nmol, (76)
Experimental: as §1

transformed cells = conditions: cited from earlier work
HRPO = test: Degradation of H2O2 / inhibition of HRPO; format: biochemical; conditions: unpublished results of Bhimani and Frenkel
[6] = system: TPA-induced cataracts in eyes of rabbits; test: TPA-induced cataracts in rabbits in vivo; parameters: species or system white New Zealand rabbits; conditions: for cataract appearance, rabbit No. 5 (in words): conclusion of the experiment; for cataract appearance, other test animals (in words): rabbit, in vivo
Experimental: B) Test animals. Six healthy young (6-8 weeks old) white New Zealand rabbits of both sexes were used for the experiments. Each animal had normal eyes as confirmed by ocular examination by slit lamp.
C) Treatment of animals and monitoring the eye alterations. Cataracts were induced by the direct application of both TPA and CAPE into the eye chamber. On every third day, 0.05 ml of the TPA solution (200 μg/ml PBS) was injected into the anterior chamber of both eyes via a puncture at the corneo-scleral limbus with a fine 0.3×42 mm needle joined to a tuberculin syringe. The animals were all given local anesthesia with HUMACAIN eye drops (human, Godollo, Hungary) under sterile conditions for each application. One hour after TPA was injected, 0.05 ml of the CAPE solution (50 μg/ml) was administered into the anterior chamber of only the left eye, as above. The right eye of each animal received no further treatment. This procedure was repeated a total of 16 times. Periodic ocular examinations by slit lamp were performed after the 6th, 12th, and final drug applications. Subsequently, examinations were made on the 10th and 23rd days after the last drug treatment. After each ocular examination, the physical findings were recorded and photodocumentation of the eye changes were performed. The photographic documentary was executed in the following manner. Firstly, lenses were illuminated by a fiber optic light source from behind and photographs were taken from a distance of 5-6 cm. The diapositive black and white images on paper were transferred into an IBM personal computer (system 2, model 30) using a Sony-2-Cue CCD video camera that was equipped with Fujinon TV zoom objective (1:1.8) via a 17.5-105 signal-transfer system. Finally, with these computer image reconstructions, the areas of the lens opacifications were delineated and quantified using the Olympus image analyzer C-2 morphometry version 2.2 program.

[7] = system: Fischer cloned rat embryo fibroblasts; conditions: cited from earlier work
mouse skin = conditions: cited from earlier work
bovine lens (opacity) = conditions: 1 μM TPA; cited from earlier work
[8] = system: TPA-induced cataracts in eyes of rabbits; test: TPA-induced cataracts in rabbits in vivo; parameters: species or system white New Zealand rabbits; conditions: daily TPA-containing drops, 6 week period

## O=C(/C=C/c1ccc(O)c(O)c1)OCCc1ccccc1 [CAPE, Caffeic acid phenethyl ester]
[1]
  growth inhibition, untransformed rat 6 cells (in words): but not that of the untransformed rat 6 cells
[2]
  growth inhibition (in words): inhibited
[3]
  inhibition of TPA-induced ODC: 62%
[4]; 0.5 h, human PMNs 2.5×10^5/ml, TPA 25 pmol/ml, 37° C., 30 min, read-out: 50% inhibition of oxidative burst of PMNs (H2O2 production)
  IC50: 0.5 µM
[4]; CAPE 0.05-5.0 nmol/ml
  inhibition of oxidative burst (in words): inhibited the oxidative burst of PMNs (as measured by H2 O2 production) in a dose-dependent manner
Normal tissue
  toxicity to normal tissue (in words): not toxic to normal tissue
HIV integrase
  HIV integrase inhibition (in words): inhibits HIV integrase
[5]
  inhibition of TPA-induced ODC: 55%
Transformed cells
  selective toxicity (in words): selectively toxic to transformed cells but not to normal cells
HRPO
  degradation of H2O2 or inhibition of HRPO (in words): does not degrade H2 O2 or inhibit HRPO
[6]; 5 of 6 animals
  area of TPA-induced cataracts larger in eye without CAPE than in CAPE-injected eye: 2.2-44.2 times
[6]; CAPE 0.05 ml of 50 μg/ml 1 h after TPA, 16 times, one line per animal
  Size of cataract, CAPE (TPA + CAPE treated left eye): 1.428 relative units and 6.739 relative units and 10.77 relative units and 28.722 relative units and 30.199 relative units and 43.184 relative units
[6]
  cataract appearance, rabbit No. 5 (in words): a small capsular-subcapsular immature cataract is evident
  cataract appearance, other test animals (in words): generally smaller and more immature
[6]; left (TPA + CAPE) vs right (TPA) eye of the same animal, one line per animal
  Size of cataract, % of Control: 2.25% and 45.83% and 10.26% and 25.73% and 30.22% and 151.11%
[6]; left eye, intracameral CAPE after TPA
  lens appearance, effect of CAPE (in words): significantly clearer; also recorded: produced a prophylactic effect on incipient cataracts; also recorded: significantly reduced the pathological effects of this phorbol ester
[6]; rabbits, termination of the experiment
  animals with smaller cataract in CAPE-treated eye: 5 out of the 6
[7]
  inhibition of adenovirus type 5 E1A-mediated transformation; cytotoxicity (in words): inhibit the transformation mediated by adenovirus type 5 E1A; also recorded: more cytotoxic to transformed Fischer cloned rat embryo fibroblasts than to wild type cells

## CCCCCCCCCCCCCC(=O)O[C@@H]1[C@@H](C)[C@@]2(O)[C@@H](C=C(CO)C[C@]3(O)C(=O)C(C)=C[C@@H]23)[C@@H]2C(C)(C)[C@]12OC(C)=O [TPA, 12-O-tetradecanoylphorbol-13-acetate]
Mouse skin
  H2O2 production and oxidation of DNA bases in vivo (in words): induce H2 O2 production in mouse skin as well as cause oxidation of DNA bases in vivo
Bovine lens (opacity)
  lens opacity (in words): even more pronounced; also recorded: causes its opacity
[6]; TPA 0.05 ml of 200 μg/ml into anterior chamber every third day, 16 times, one line per animal
  Size of cataract, Control (TPA-treated right eye): 63.139 relative units and 14.704 relative units and 104.97 relative units and 111.62 relative units and 99.923 relative units and 28.578 relative units
[6]; TPA injected into anterior chamber
  induction of cataracts in live rabbits (in words): Cataracts of various sizes and types were evident by ocular examination in both eyes starting after the 12th TPA injection; also recorded: potent inducer of cataracts in the eyes of live rabbits
[6]
  cataract appearance, rabbit No. 5 (in words): a rather large arched subcortical condensed immature but developing cataract is evident
  cataract appearance, other test animals (in words): larger, more mature cataracts that had spread deeply into the nuclear region
[8]
  alteration in lens transparency (in words): failed to induce any visible alteration in the transparency of the lenses
